Laboratory results reported in paper PMC5549559 (Cellular signalling, 2015).

What was measured:
rats = details: ref [11], cited from earlier work; for cocaine self-administration (drug intake): intra-VTA infusion, rats
p38 = p38 activation; type: cell-based, Chinese hamster; details: western blot, ± SD, mean of 3 separate experiments (Figure 5D)
[1] = system: kappa opioid receptor (KOR); assay: PathHunter β-arrestin recruitment assay in Drx-KOR cells; type: cell-based; details: dynorphin, various concentrations, 90 min at 37°C; Drx-KOR cells (Figure 5A)
[2] = system: kappa opioid receptor (KOR); assay: GloSensor cAMP assay; type: cell-based

Cc1nc2ccc(NC(=O)Nc3ccnc4cccnc34)cc2o1 [SB-334867]
cocaine self-administration (drug intake) (rats): reduces cocaine self-administration in rats

Dynorphin A (1-17) (YGGFLRRIRPKLKWDNQ; Dynorphin A(1-17); UniProt P01213 207-223, looked up)
increase in phospho-p38/total p38 (p38; 1 μM dynorphin, 15 min, CHO-KOR cells, relative to untreated): 1.76 ± 0.12 fold
increase in phospho-p38/total p38 (p38; CHO-KOR + HA-OX1R, 500 nM orexin 10 min prior to dynorphin, relative to untreated cells): 2.82 ± 0.36 fold
β-arrestin recruitment to KOR (luminescence) [1]: concentration-dependent increase in luminescence
KOR response to dynorphin (cAMP) on transfection and activation of 5HT2aR ([2]; 1 μM dynorphin, CHO-KOR + 5HT2aR, activated (Figure 1A)): does not affect the KOR response to dynorphin

Oc1ccc2c3c1O[C@H]1c4[nH]c5c(c4C[C@@]4(O)[C@@H](C2)N(CC2CC2)CC[C@]314)C[C@@]1(O)[C@H]2Cc3ccc(O)c4c3[C@@]1(CCN2CC1CC1)[C@H]5O4 [norBNI]
cocaine self-administration (drug intake) (rats): has no effect on drug intake
effect on ability of SB-334867 to reduce drug intake (rats; norBNI with SB-334867, rats): blocks the ability of SB-334867 to reduce drug intake

O=S(=O)(NCCNC/C=C/c1ccc(Br)cc1)c1cccc2cnccc12 [H89]
effect of PKA inhibitor on OX1R attenuation of KOR Gαi signaling ([2]; PKI or H89, 2 h, CHO-KOR + HA-OX1R, 500 nM orexin, 1 μM dynorphin (Figure 2B)): did not affect OX1R attenuation of KOR Gαi signaling
